What was measured:
Lewis lung carcinomas = assay: Lewis lung carcinoma tumor growth in mice; type: in vivo, C57BL/6 mice; details: C57BL/6 mice, intraperitoneal injection 10 mg/kg daily, eleven days
SK-BR-3 = assay: proliferation of SK-BR-3 cells; type: cell-based; details: SK-BR-3, 24-72 hours (72 hours shown)
Experimental: Cell Viability: Cells were incubated in 20% trypan blue (Sigma) for 5 minutes. Cells excluding trypan blue were counted using a standard hemocytometer (Hausser Scientific) to determine total numbers of viable cells. Data are expressed as mean±SD of three experiments.

H460 cells [1] = assay: F2,6BP measurements in H460 cells; type: cell-based, human; details: H460, indicated concentrations of MPN-2
Experimental: F2,6BP measurements: Cells or tissues were prepared as previously described and F2,6BP content measured using a coupled enzyme reaction following the method of Van Schaftingen et at (Van Schaftingen E et al. A kinetic study of pyrophosphate: fructose-6-phosphate phosphotransferase from potato tubers. Application to a microassay of fructose 2,6-bisphosphate. Eur J Biochem 1982 December; 129(1): 191-5) and normalized to total cellular protein measured by the bicinchoninic acid assay (BCA, Thermo Scientific). […] In order to measure F2,6BP, cells were harvested, washed with PBS, lysed in NaOH/Tris acetate by heating at 80° C. and lysates neutralized to pH 7.2. F2,6BP content was measured using a coupled enzyme reaction following the method of Van Schaftingen et al (Eur J Biochem. 1982; 129(1): 191-195). The F2,6BP concentration was normalized to total cellular protein measured by the bicinchoninic acid assay (BCA, Thermo Scientific) All data are expressed as the mean±SD of three experiments. Statistical significance was assessed by the two-sample t test (independent variable).

H460 cells [2] = assay: Glycolysis assay (3H2O from 5-[3H]glucose) in H460 cells; type: cell-based, human; details: H460, indicated concentrations of MPN-2, 48 hours
Experimental: Cells growing in 6-well plates were incubated in 500 μl of complete medium containing 1 μCi of 5-[^3H]glucose per well for 60 min in 5% CO2 at 37° C. Media was collected, ^3H2O formed via glycolysis from the 5-[^3H]glucose measured and counts normalized as previously described. For example, the medium was then collected and centrifuged to pellet any suspended cells. To separate the ^3H2O formed via glycolysis from the 5-[^3H]glucose added to the medium, an evaporation technique in a sealed system was utilized. Briefly, 150 μl aliquots of medium were added to open tubes that were placed upright inside scintillation vials containing 1 ml of H2O. The scintillation vials were sealed, and the ^3H2O produced by glycolysis through enolase and released to the medium was allowed to equilibrate with the H2O in the outer vial for 48 h at 37° C. The amounts of ^3H2O that had diffused into the surrounding H2O was measured on a Tri-Carb 2910 liquid scintillation analyzer (Perkin Elmer) and compared with ^3H2O and 5-[^3H]glucose standards. Protein concentration was determined using the BCA assay and counts were normalized to protein concentration. All data are expressed as the mean±SD of three experiments. Statistical significance was assessed by the two-sample t test (independent variable).

[3] = oral and intravenous pharmacokinetics of MPN-2; type: in vivo; details: CD-1 mice (N=3)
H460 cells [4] = assay: proliferation / viable cell count (trypan blue) of H460 cells; type: cell-based, human; details: for proliferation of H460 NSCLC cells, viable cells by Trypan blue exclusion: increasing concentrations, counts at 48 hours shown
Experimental: Cell Viability: Cells were incubated in 20% trypan blue (Sigma) for 5 minutes. Cells excluding trypan blue were counted using a standard hemocytometer (Hausser Scientific) to determine total numbers of viable cells. Data are expressed as mean±SD of three experiments. Proliferation Assays: H460 non-small cell lung cancer cells were plated in 24 well plates and exposed to increasing concentrations of the indicated inhibitors of Formula IV (FBR1-02 corresponds to [drawing 47] DMSO was used as vehicle. After 24, 48 and 72 hours of exposure, cells were detached and viable cells were counted by Trypan blue exclusion (representative counts at 48 hours shown).

H460 cells [5] = assay: ATP measurements in H460 cells; type: cell-based, human; details: H460, indicated concentrations of MPN-2, 48 hours
Experimental: Cells were lysed and intracellular ATP determined as described previously. For example, cells were washed (while still adherent) with cold PBS 1×, lysed with Passive Lysis Buffer (1×; Molecular Probes, Invitrogen) added directly to the plates, and immediately harvested by scraping. The lysates were flash frozen (to −80° C.) and thawed (to 37° C.) once to accomplish complete lysis and then centrifuged (at 4° C.) for 30 seconds to clear the lysates. Intracellular ATP levels were determined using a bioluminescence assay (Molecular Probes), utilizing recombinant firefly luciferase and its substrate, D-luciferin. The luminescence was read in a TD-20/20 luminometer (Turner Designs) at 560 nm. The ATP values were calculated using an ATP standard curve. The protein concentrations of the lysates were estimated using the BCA assay (Pierce Biotechnology) and ATP was expressed as pmol/μg protein. All data are expressed as the mean±SD of three experiments. Statistical significance was assessed by the two-sample t test (independent variable).

| Compound | tumor growth of Lewis lung carcinomas (Lewis lung carcinomas) | proliferation (SK-BR-3) | F2,6BP production (H460 cells [1]) | intracellular glycolysis (H460 cells [2]) | oral bioavailability [3] | proliferation (H460 cells [4]; H460, 24-72 hours (72 hours shown)) | proliferation, viable cells (H460 cells [4]; H460 NSCLC, 48 hours and 72 hours) | ATP production (H460 cells [5]) | proliferation of H460 NSCLC cells, viable cells by Trypan blue exclusion (H460 cells [4]) |
| --- | --- | --- | --- | --- | --- | --- | --- | --- | --- |
| 5-[(8-methoxy-2-methylquinolin-1-ium-4-yl)amino]pentyl nitrate [MPN-2] | suppressed the growth | decreased proliferation | significantly inhibited | significantly decreased | high oral bioavailability | decreased proliferation | decreased the proliferation | significantly decreased |  |
| O=[N+]([O-])OCCCCCNc1ccnc2ccccc12 [FBR1-02] |  |  |  |  |  |  |  |  | decreased proliferation of cancer cells |
| COc1cccc2c(NCCCCCNS(C)(=O)=O)ccnc12 [FBR1-09] |  |  |  |  |  |  |  |  | decreased proliferation of cancer cells |
